{"source": "paper PMC8879074", "about": "“A Novel Small Molecular Prostaglandin Receptor EP4 Antagonist, L001, Suppresses Pancreatic Cancer Metastasis” (Molecules, 2022)", "key": {"[1]": {"system": "YAP, CYR61 and CTGF mRNA in Pan02 cells", "assay": "Real-time qPCR of YAP and YAP target genes, Pan02", "assay_type": "cell-based, murine", "conditions": "PGE2 0.1 μM, compound 10 μM, 12 h", "protocol": "Total RNA was extracted from cells using TRIzol reagent. The cDNA was synthesized by RT-PCR kit (Vazyme Biotech, Nanjing, China). The band intensity was determined by the gel image analysis system (Bio-Rad, Hercules, CA, USA). SYBR Green-based qPCR (Yeason, Shanghai, China) was conducted subsequently. Relative mRNA levels of target genes were normalized with β-actin. The sequences of primers are listed in Supplementary Table S1. The raw data are listed in Supplementary Table S2."}, "[2]": {"system": "BxPC-3 cells", "assay": "Cell viability assay (MTS), BxPC-3", "assay_type": "cell-based, human", "conditions": "72 h", "protocol": "Cells were seeded into 96-well plates and treated with varied concentrations of compounds for 72 hrs. Cell viabilities were determined by using MTS reagent (Promega, Madison, WI, USA) according to the manufacturer’s manual. Spectrophotometric absorbance at 490 nm was measured by Flexstation® 3 Multi-Mode Microplate Reader (Molecular Devices, San Jose, CA, USA). The experiments were independently repeated three times."}, "[3]": {"target": "T1, human EP3 (Homo sapiens, UniProt P43115)", "T1 construct": "expressed in transfected cells; host or cells: CHO-Gα16", "T1 sequence (P43115 1-390)": "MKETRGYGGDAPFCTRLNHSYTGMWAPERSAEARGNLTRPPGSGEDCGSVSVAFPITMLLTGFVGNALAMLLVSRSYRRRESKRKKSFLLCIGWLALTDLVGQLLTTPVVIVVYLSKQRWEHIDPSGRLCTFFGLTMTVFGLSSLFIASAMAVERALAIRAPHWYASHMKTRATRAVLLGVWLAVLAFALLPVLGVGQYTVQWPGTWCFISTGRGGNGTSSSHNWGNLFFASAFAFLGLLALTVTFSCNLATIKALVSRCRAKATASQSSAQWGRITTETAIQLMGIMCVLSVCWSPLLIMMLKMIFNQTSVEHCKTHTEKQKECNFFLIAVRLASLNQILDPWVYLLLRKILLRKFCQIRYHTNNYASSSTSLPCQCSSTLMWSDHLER", "assay": "Calcium flux assay, human EP3", "assay_type": "cell-based", "conditions": "CHO-Gα16 cells, PGE2 (EC80)", "protocol": "(§1) Calcium flux assay was conducted as described in our previous study. Briefly, CHO-Gα16 cells were transfected, respectively, with human EP1, human EP2, human EP3, human EP4, monkey EP4, mouse EP4 and rat EP4 overexpression constructs using lipofectamine 2000 according to the manufacturer’s manual. Cells were then seeded into a 96-well black plate with a cell density of 2 × 10^4 cells/100 μL per well for a 16-h culture. On the next day, cells were incubated for 45 min with reagents (100 μL/well) of Calcium-5 Assay Kit (Molecular Devices, San Jose, CA, USA). Then, cells were pre-treated with indicated concentrations of L001 for 15 min and stimulated with PGE2 (EC80). The calcium flux was detected subsequently by a Flexstation® 3 Multi-Mode Microplate Reader (Molecular Devices, San Jose, CA, USA)."}, "[4]": {"target": "T2, EP4 (Homo sapiens, UniProt P35408)", "T2 sequence (P35408 whole entry)": "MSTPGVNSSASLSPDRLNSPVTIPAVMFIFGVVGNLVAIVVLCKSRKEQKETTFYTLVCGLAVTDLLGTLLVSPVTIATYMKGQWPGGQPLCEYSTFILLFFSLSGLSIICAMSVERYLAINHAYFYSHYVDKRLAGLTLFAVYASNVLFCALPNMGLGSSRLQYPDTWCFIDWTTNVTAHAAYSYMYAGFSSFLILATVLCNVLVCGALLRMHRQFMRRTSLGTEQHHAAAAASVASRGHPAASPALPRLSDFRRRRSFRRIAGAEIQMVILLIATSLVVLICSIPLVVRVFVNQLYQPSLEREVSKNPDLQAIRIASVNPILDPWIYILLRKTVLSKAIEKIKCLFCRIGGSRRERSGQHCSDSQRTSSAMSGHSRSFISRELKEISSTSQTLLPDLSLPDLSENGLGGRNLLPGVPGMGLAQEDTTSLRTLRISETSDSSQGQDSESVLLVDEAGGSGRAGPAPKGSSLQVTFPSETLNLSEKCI", "assay": "TANGO assay (EP4/β-arrestin2 interaction)", "assay_type": "cell-based", "parameters": "tTA transcription factor (C); expressed in transfected cells; host or cells: CHO-K1", "protocol": "TANGO assay was performed as described previously with some modification. Briefly, CHO-K1 cells were co-transfected with plasmids of EP4-TANGO, β-arrestin-TEV and tTA-luc at a ratio of 0.5:1:1. After 4 h, transfected cells were seeded into 96-well plates and cultured overnight. Then, cells were starved for 5 h and treated with different concentrations of compounds. After incubation for 16 h, cells were lysed and the luciferase activities were determined using Dual-Luciferase Reporter Assay Kit (Promega, Madison, WI, USA)."}, "[5]": {"target": "T3, mouse EP4 (Mus musculus, UniProt P32240)", "T3 construct": "expressed in transfected cells; host or cells: CHO-Gα16", "T3 sequence (P32240 whole entry)": "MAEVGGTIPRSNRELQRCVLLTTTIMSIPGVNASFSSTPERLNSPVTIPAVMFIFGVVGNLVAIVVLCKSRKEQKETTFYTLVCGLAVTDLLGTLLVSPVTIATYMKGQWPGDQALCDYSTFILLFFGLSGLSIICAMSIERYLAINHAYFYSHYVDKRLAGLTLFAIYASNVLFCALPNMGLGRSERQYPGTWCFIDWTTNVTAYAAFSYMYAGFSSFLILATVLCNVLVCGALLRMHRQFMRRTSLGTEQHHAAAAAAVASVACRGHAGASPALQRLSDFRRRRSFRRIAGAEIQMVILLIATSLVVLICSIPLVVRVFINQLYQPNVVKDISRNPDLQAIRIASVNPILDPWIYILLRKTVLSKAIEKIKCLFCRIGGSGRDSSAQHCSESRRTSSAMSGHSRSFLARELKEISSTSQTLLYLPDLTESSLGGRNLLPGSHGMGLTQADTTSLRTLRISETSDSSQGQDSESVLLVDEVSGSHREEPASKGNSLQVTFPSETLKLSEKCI", "assay": "Calcium flux assay, mouse EP4", "assay_type": "cell-based", "protocol": "as §1"}, "[6]": {"system": "Pan02-Luc hepatic metastasis", "assay": "Pan02-Luc liver metastasis model with bioluminescent imaging", "assay_type": "in vivo, C57BL/6 mice", "protocol": "Male C57/BL6 mice (6–8 weeks) were obtained from the National Rodent Laboratory Animal Resources (NRLAR, Shanghai, China). All mice were housed according to Institutional Animal Care and Use Committee guidelines and under a protocol approved by East China Normal University Ethics Committee with respect to animal care and welfare assurance. The bioluminescent liver metastasis mouse model was established as described previously. In brief, 2 × 10^6 Pan02/luc cells suspended in 50 μL of PBS were injected into mice spleen. […] Tumor metastasis was monitored by using an in vivo imaging system following intraperitoneal injection with D-Luciferin (2 mg per mouse; Promega). Bioluminescence intensity was recorded every seven days by a Xenogen IVIS-200 Optical in vivo imaging system (PerkinElmer; Waltham, MA, USA) for up to 4 weeks. The mouse body weight was measured every other day. Survival curve analysis was performed using GraphPad Prism 7.\nMouse liver tissues were harvested, fixed, paraffin embedded, and sectioned (8 μm). The tissues were permeabilized with 0.25% TritonX-100 at room temperature for 15 min, blocked with 1% FBS in PBS, and followed by incubation in primary antibodies at 4 °C overnight: rabbit anti-YAP (1:50 dilution, ab205270, abcam). The sections were then washed with PBS, incubated with anti-rabbit secondary antibody for 2 h and dyed with DAPI (10 μg/mL in PBS) for 5 min at room temperature. Slides were mounted using DPX Mountant (Electron Microscopy Sciences) and images were obtained by inverted fluorescence microscope (Olympus, Tokyo, Japan)."}, "[7]": {"target": "T2, EP4", "assay": "cAMP responsive element (CRE) luciferase reporter assay", "assay_type": "cell-based", "parameters": "host or cells: HEK293 (results) / CHO-K1 (methods)", "protocol": "CHO-K1 cells or pancreatic cancer cell lines were transfected with a cAMP responsive element (CRE) reporter or TEAD reporter using lipofectamine 2000 according to the manufacturer’s manual. Transfected cells were treated with varied concentrations of compounds for 24 h. Then, cells were lysed and luciferase activities were determined using Dual-Luciferase Reporter Assay Kit (Promega, Madison, WI, USA)."}, "[8]": {"target": "T4, human EP2 (Homo sapiens, UniProt P43116)", "T4 construct": "expressed in transfected cells; host or cells: CHO-Gα16", "T4 sequence (P43116 whole entry)": "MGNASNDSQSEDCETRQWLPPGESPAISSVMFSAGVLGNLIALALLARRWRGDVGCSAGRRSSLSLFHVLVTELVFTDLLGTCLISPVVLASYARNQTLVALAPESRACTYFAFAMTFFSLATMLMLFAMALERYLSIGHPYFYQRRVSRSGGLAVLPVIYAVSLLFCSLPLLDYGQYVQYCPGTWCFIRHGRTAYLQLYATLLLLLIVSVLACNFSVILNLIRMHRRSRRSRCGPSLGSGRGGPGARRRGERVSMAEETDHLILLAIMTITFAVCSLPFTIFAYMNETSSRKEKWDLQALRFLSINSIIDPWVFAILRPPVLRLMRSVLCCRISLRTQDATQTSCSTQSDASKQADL", "assay": "Calcium flux assay, human EP2", "assay_type": "cell-based", "conditions": "CHO-Gα16 cells, PGE2 (EC80)", "protocol": "as §1"}, "[9]": {"system": "BxPC-3 cells", "assay": "3D Matrigel tumor spheroid invasion assay, BxPC-3", "assay_type": "cell-based, human", "conditions": "0.1 μM PGE2, day 7", "protocol": "The 3D Matrigel invasion assay was performed as described. Pan02 and BxPC-3 cells were plated above a layer of Matrigel (ThermoFisher, Shanghai, China) and covered with growth medium containing 10% Matrigel. The culture medium containing different concentrations of compounds was changed every two days. After 7 days, cells with stellate invasive structure were photographed (OLYMPUS, Tokyo, Japan)."}}, "data": [{"smiles": "C[C@H](NC(=O)c1c(Cc2cccc(C(F)(F)F)c2)sc2c1CCOC2)c1ccc(C(=O)O)cc1", "note": "[L001]", "values": [{"measurement": "mRNA expression levels of YAP, CYR61 and CTGF induced by PGE2, in comparison with E7046", "setting": "[1]", "value": "stronger reductions"}, {"measurement": "cell viability", "setting": "[2]", "value": "did not affect the cell viabilities"}, {"measurement": "IC50", "setting": "[3]", "value": "> 10000", "unit": "nM"}, {"measurement": "IC50", "setting": "[4]", "value": "0.16 ± 0.03", "unit": "nM"}, {"measurement": "IC50", "setting": "[5]", "value": "3.2 ± 0.28", "unit": "nM"}, {"measurement": "YAP protein level in hepatic metastasis loci", "setting": "[6]; IHC, L001 75 mg/kg p.o. daily", "value": "decreased protein levels of YAP"}, {"measurement": "H&E imaging of liver sections", "setting": "[6]; L001 or E7046 75 mg/kg p.o. daily, gemcitabine 25 mg/kg i.p. twice a week", "value": "remarkably reduced metastatic clusters"}, {"measurement": "reduction of Pan02 cell liver metastases (bioluminescence of separated livers)", "setting": "[6]; L001 or E7046 75 mg/kg p.o. daily, gemcitabine 25 mg/kg i.p. twice a week, n = 6", "value": 85.14, "unit": "%"}, {"measurement": "reduction in median luminescence signal compared with vehicle control group", "setting": "[6]; day 28, L001 or E7046 75 mg/kg p.o. daily, gemcitabine 25 mg/kg i.p. twice a week, n = 6", "value": 80.57, "unit": "%"}, {"measurement": "median survival", "setting": "[6]; n = 9, L001 or E7046 75 mg/kg p.o. daily, gemcitabine 25 mg/kg i.p. twice a week, control 34 days", "value": 42, "unit": "days"}, {"measurement": "mRNA expressions of Vimentin and Snail in hepatic metastasis loci", "setting": "[6]; qPCR, L001 75 mg/kg p.o. daily", "value": "reduced the mRNA expressions"}, {"measurement": "IC50", "setting": "[7]", "value": "7.29 ± 0.64", "unit": "nM"}, {"measurement": "antagonism efficacy on EP4 compared with E7046", "setting": "[7]; CRE reporter assay", "value": "over 5 fold"}, {"measurement": "IC50", "setting": "[8]", "value": "> 10000", "unit": "nM"}, {"measurement": "spheroid invasion morphology (filopodium-like protrusions)", "setting": "[9]", "value": "completely retracted PGE2-induced membrane surface projections"}]}]}
